The source of these data is PubChem BioAssay (NCI).

Common to all, as to assay: inhibition of tumour cell growth, NCI panel, 48 h
The test system of assay [1] is A498 renal.
Assay [2] concerns A549 NSCLC.
Assay [3] has as its system CCRF-CEM leukemia.
Assay [4] has as its system DU-145 prostate.
Assay [5] relates to HCT-116 colon.
In assay [6] the test system is HCT-15 colon.
In assay [7] the test system is IGROV1 ovarian.
The subject of assay [8] is NCI-H522 lung.
Assay [9] relates to OVCAR-5 ovarian.
Assay [10] concerns RPMI-8226 leukemia.
The subject of assay [11] is SF-268 CNS.
For assay [12], the system named is SK-OV-3 ovarian.
In assay [13] the test system is SR leukemia.
Assay [14] concerns TK-10 renal.
The subject of assay [15] is T-47D breast.

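Protocol summary: plate cells (96-well), add compound at 5 concentrations, incubate 48 h, interpolate endpoints linearly. TGI is the concentration that stops growth completely.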

`N=C(N)C1CN(CCc2cnc[nH]2)C(=O)NC1=O` (stereo unspecified): the TGI in assay [1], in assay [2], in assay [3], in assay [4], in [5] and in [6] was more than 100 µM each time. Besides, the TGI in [7], in [8], in [9], in [10], in assay [11] and in assay [12] was more than 100 µM throughout. In addition, the TGI in [13] and in assay [14] was more than 100 µM each time.

As for `C[C@@]12c3c4ccc(C=O)c3Oc3ccc(C=O)c(c31)Oc1c(C=O)ccc(c12)O4`, the TGI in assay [1], in assay [2], in assay [5], in assay [6], in assay [7] and in [9] was more than 100 µM in each case. The TGI in assay [10], in assay [11], in assay [12], in assay [13], in assay [15] and in assay [14] was more than 100 µM in each case.

In the case of `O=C(O)c1c[nH]c2c(=O)[nH]cnc12`, the TGI in assay [2], in [3], in [5], in assay [6], in assay [7] and in assay [8] was more than 100 µM each time. Moreover, the TGI in [9], in [10], in assay [11], in [12], in assay [13] and in [14] was more than 100 µM each time.

In the case of `CC12CCC([C@H](N3CCOCC3)/C1=N\OCCN1CCCC1)C2(C)C` (stereo partly specified), the TGI in assay [1], in [2], in assay [3], in [5], in [6] and in assay [7] was more than 100 µM each time. The TGI in assay [8], in [9], in [10], in assay [11], in [12] and in [13] was more than 100 µM in each case. The same compound gave a TGI in assay [14] of more than 100 µM.

On to `NCCC(=O)N[C@H](Cc1cc(O)c(O)c(SCC(NC(=O)CC[C@H](N)C(=O)O)C(=O)NCC(=O)O)c1)C(=O)O` (stereo partly specified), for which the TGI in assay [1], in assay [2], in assay [4], in assay [5], in assay [6] and in [7] was more than 50 µM each time. For the same compound, the TGI in assay [8], in assay [9], in [10], in assay [11], in assay [12] and in [14] was more than 50 µM each time.

For the compound `C=CCN1C(=O)CC1N(CC=C)S(=O)(=O)c1ccc(C)cc1` (stereo unspecified), the TGI in assay [1], in [2], in assay [3], in [4], in assay [5] and in [6] was more than 100 µM each time. Besides, the TGI in assay [7], in [8], in [9], in assay [10], in [12] and in assay [13] was more than 100 µM throughout. The compound also displayed a TGI in assay [14] of more than 100 µM.

For the compound `C#CCSc1nc(N)c2ncn(C3OC(CO)C(O)C3O)c2n1` (stereo unspecified), the TGI in assay [1], in assay [2], in [3], in assay [5], in assay [6] and in assay [7] was more than 100 µM in each case. Further, the TGI in [8], in [10], in [11], in assay [13] and in assay [14] was more than 100 µM each time.

On to `O=C(C/C(=N\NC(=O)C[n+]1ccccc1)C(=O)Nc1nc2ccc([N+](=O)[O-])cc2s1)CC(c1ccccc1)c1c(O)c2ccccc2oc1=O` (stereo unspecified), for which the TGI in [1], in assay [2], in assay [3], in assay [5], in [7] and in assay [8] was more than 100 µM in each case. The TGI in assay [9], in assay [10], in assay [11], in assay [12], in assay [13] and in assay [14] was more than 100 µM in each case.

For the compound `CCC(CC)C(=O)OC[n+]1ccc(-c2c(COC(=O)NC(C)C)c(COC(=O)NC(C)C)c3n2CCC3)cc1`, the TGI in [1], in [2], in assay [3], in assay [6], in assay [7] and in assay [8] was more than 100 µM throughout. Further, the TGI in [10], in assay [12] and in assay [13] was more than 100 µM in each case.

As for `O=C(CC(=O)C(=O)Nc1ccccc1)CC(c1ccccc1)c1c(O)c2ccccc2oc1=O` (stereo unspecified), the TGI in assay [1], in assay [2], in [3], in assay [5], in assay [6] and in [7] was more than 100 µM each time. For the same compound, the TGI in assay [8], in [9], in assay [11], in assay [12] and in [14] was more than 100 µM each time.

Consider `C=C[C@@]1(C)CCC2(O)C(CCC3C2(C)CCC[C@@]3(C)COC(=O)CC(=O)OC)C1` (stereo partly specified), for which the TGI is 35.9 µM in assay [2]; more than 100 µM in [3]; 32.3 µM in assay [5]; 34.9 µM in assay [6]; 71.7 µM in [7]; 32.4 µM in assay [8]. For the same compound, the TGI in assay [9] was 57.8 µM; in assay [10], 47 µM; in assay [11] it was 55.3 µM; in [12], more than 100 µM; in [13], 43.9 µM; in assay [14], 73.3 µM.
